Results as given in PubChem BioAssay (NCI).
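Method: 48-hour compound exposure of cells in 96-well plates, five concentrations, linear interpolation of endpoints. GI50 is the concentration that inhibits growth by half. The concentration for full growth arrest is given as TGI.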

Key:
Test in all cases: inhibition of tumour cell growth, NCI panel, 48 h
RPMI-8226 leukemia = test system: RPMI-8226 leukemia
MDA-MB-435 = test system: MDA-MB-435
HT29 colon = test system: HT29 colon
OVCAR-8 ovarian = test system: OVCAR-8 ovarian
M14 melanoma = test system: M14 melanoma
U251 CNS = test system: U251 CNS
SK-OV-3 ovarian = test system: SK-OV-3 ovarian
CCRF-CEM leukemia = test system: CCRF-CEM leukemia
CAKI-1 renal = test system: CAKI-1 renal
EKVX NSCLC = test system: EKVX NSCLC
OVCAR-4 ovarian = test system: OVCAR-4 ovarian
HS 578T breast = test system: HS 578T breast
RXF 393 renal = test system: RXF 393 renal
UO-31 renal = test system: UO-31 renal
NCI-H522 lung = test system: NCI-H522 lung
NCI/ADR-RES ovarian = test system: NCI/ADR-RES ovarian
SK-MEL-2 melanoma = test system: SK-MEL-2 melanoma
COLO 205 colon = test system: COLO 205 colon
OVCAR-5 ovarian = test system: OVCAR-5 ovarian
ACHN renal = test system: ACHN renal
KM12 colon = test system: KM12 colon
HCC-2998 colon = test system: HCC-2998 colon
SF-539 CNS = test system: SF-539 CNS
MOLT-4 leukemia = test system: MOLT-4 leukemia
UACC-257 melanoma = test system: UACC-257 melanoma
SK-MEL-28 melanoma = test system: SK-MEL-28 melanoma
BT-549 breast = test system: BT-549 breast
SR leukemia = test system: SR leukemia
786-0 renal = test system: 786-0 renal
MDA-MB-231 breast = test system: MDA-MB-231 breast
HCT-15 colon = test system: HCT-15 colon
DU-145 prostate = test system: DU-145 prostate
MALME-3M melanoma = test system: MALME-3M melanoma
HOP-62 NSCLC = test system: HOP-62 NSCLC
PC-3 prostate = test system: PC-3 prostate
SF-295 CNS = test system: SF-295 CNS
A549 NSCLC = test system: A549 NSCLC
OVCAR-3 ovarian = test system: OVCAR-3 ovarian
HL-60(TB) leukemia = test system: HL-60(TB) leukemia
HOP-92 NSCLC = test system: HOP-92 NSCLC
SNB-19 CNS = test system: SNB-19 CNS
HCT-116 colon = test system: HCT-116 colon
A498 renal = test system: A498 renal
SNB-75 CNS = test system: SNB-75 CNS
SK-MEL-5 melanoma = test system: SK-MEL-5 melanoma
UACC-62 melanoma = test system: UACC-62 melanoma
TK-10 renal = test system: TK-10 renal
SW-620 colon = test system: SW-620 colon
T-47D breast = test system: T-47D breast
LOX IMVI melanoma = test system: LOX IMVI melanoma
NCI-H226 lung = test system: NCI-H226 lung

SMILES: COc1cnc2c(c1)C(=O)c1c-2n(CCCN2CCNCC2)c(=O)c2cc([N+](=O)[O-])ccc12
- GI50 (RPMI-8226 leukemia): 301 nM
- TGI (RPMI-8226 leukemia): 2280 nM
- GI50 (MDA-MB-435): 1250 nM
- TGI (MDA-MB-435): 2680 nM
- GI50 (HT29 colon): 210 nM
- TGI (HT29 colon): 1530 nM
- GI50 (OVCAR-8 ovarian): 314 nM
- TGI (OVCAR-8 ovarian): 2290 nM
- GI50 (M14 melanoma): 279 nM
- TGI (M14 melanoma): 1490 nM
- GI50 (U251 CNS): 167 nM
- TGI (U251 CNS): 1160 nM
- GI50 (SK-OV-3 ovarian): 239 nM
- TGI (SK-OV-3 ovarian): 771 nM
- GI50 (CCRF-CEM leukemia): 143 nM
- TGI (CCRF-CEM leukemia): 1780 nM
- GI50 (CAKI-1 renal): 202 nM
- TGI (CAKI-1 renal): 1710 nM
- GI50 (EKVX NSCLC): 1290 nM
- TGI (EKVX NSCLC): 2690 nM
- GI50 (OVCAR-4 ovarian): 1240 nM
- TGI (OVCAR-4 ovarian): 3010 nM
- GI50 (HS 578T breast): 1820 nM
- TGI (HS 578T breast): 4600 nM
- GI50 (RXF 393 renal): 401 nM
- TGI (RXF 393 renal): 1940 nM
- GI50 (UO-31 renal): 249 nM
- TGI (UO-31 renal): 1700 nM
- GI50 (NCI-H522 lung): 506 nM
- TGI (NCI-H522 lung): 2030 nM
- GI50 (NCI/ADR-RES ovarian): 1110 nM
- TGI (NCI/ADR-RES ovarian): 2800 nM
- GI50 (SK-MEL-2 melanoma): 2070 nM
- TGI (SK-MEL-2 melanoma): 3950 nM
- GI50 (COLO 205 colon): 61.7 nM
- TGI (COLO 205 colon): 1790 nM
- GI50 (OVCAR-5 ovarian): 1020 nM
- TGI (OVCAR-5 ovarian): 2580 nM
- GI50 (ACHN renal): 117 nM
- TGI (ACHN renal): 1220 nM
- GI50 (KM12 colon): 380 nM
- TGI (KM12 colon): 1770 nM
- GI50 (HCC-2998 colon): 1110 nM
- TGI (HCC-2998 colon): 2360 nM
- GI50 (SF-539 CNS): 354 nM
- TGI (SF-539 CNS): 1470 nM
- GI50 (MOLT-4 leukemia): 36.5 nM
- TGI (MOLT-4 leukemia): 1050 nM
- GI50 (UACC-257 melanoma): 3490 nM
- TGI (UACC-257 melanoma): 24100 nM
- GI50 (SK-MEL-28 melanoma): 1420 nM
- TGI (SK-MEL-28 melanoma): 3120 nM
- GI50 (BT-549 breast): 1400 nM
- TGI (BT-549 breast): 9700 nM
- GI50 (SR leukemia): 42.4 nM
- TGI (SR leukemia): 1900 nM
- GI50 (786-0 renal): 209 nM
- TGI (786-0 renal): 1160 nM
- GI50 (MDA-MB-231 breast): 1470 nM
- TGI (MDA-MB-231 breast): 3330 nM
- GI50 (HCT-15 colon): 194 nM
- TGI (HCT-15 colon): 1540 nM
- GI50 (DU-145 prostate): 278 nM
- TGI (DU-145 prostate): 1230 nM
- GI50 (MALME-3M melanoma): 655 nM
- TGI (MALME-3M melanoma): 2240 nM
- GI50 (HOP-62 NSCLC): 65 nM
- TGI (HOP-62 NSCLC): 572 nM
- GI50 (PC-3 prostate): 1170 nM
- TGI (PC-3 prostate): 2560 nM
- GI50 (SF-295 CNS): 126 nM
- TGI (SF-295 CNS): 1070 nM
- GI50 (A549 NSCLC): 69.9 nM
- TGI (A549 NSCLC): 1500 nM
- GI50 (OVCAR-3 ovarian): 1190 nM
- TGI (OVCAR-3 ovarian): 2630 nM
- GI50 (HL-60(TB) leukemia): 113 nM
- TGI (HL-60(TB) leukemia): 1110 nM
- GI50 (HOP-92 NSCLC): 1250 nM
- TGI (HOP-92 NSCLC): 9910 nM
- GI50 (SNB-19 CNS): 210 nM
- TGI (SNB-19 CNS): 2100 nM
- GI50 (HCT-116 colon): 96 nM
- TGI (HCT-116 colon): 1780 nM
- GI50 (A498 renal): 86.3 nM
- TGI (A498 renal): 2190 nM
- GI50 (SNB-75 CNS): 429 nM
- TGI (SNB-75 CNS): 1970 nM
- GI50 (SK-MEL-5 melanoma): 403 nM
- TGI (SK-MEL-5 melanoma): 1620 nM
- GI50 (UACC-62 melanoma): 176 nM
- TGI (UACC-62 melanoma): 1570 nM
- GI50 (TK-10 renal): 1110 nM
- TGI (TK-10 renal): 2390 nM

SMILES: COc1ccc(OC)c2c3c([nH]c12)C(=O)Nc1nc(N)nc(N)c1C3
- TGI (MDA-MB-435): > 100000 nM
- TGI (HT29 colon): 4490 nM
- TGI (OVCAR-8 ovarian): > 100000 nM
- TGI (M14 melanoma): > 100000 nM
- TGI (SK-OV-3 ovarian): > 100000 nM
- TGI (EKVX NSCLC): > 100000 nM
- TGI (OVCAR-4 ovarian): > 100000 nM
- TGI (RXF 393 renal): > 100000 nM
- TGI (SW-620 colon): > 100000 nM
- TGI (SK-MEL-2 melanoma): > 100000 nM
- TGI (OVCAR-5 ovarian): > 100000 nM
- TGI (KM12 colon): > 100000 nM
- TGI (HCC-2998 colon): > 100000 nM
- TGI (UACC-257 melanoma): > 100000 nM
- TGI (SK-MEL-28 melanoma): > 100000 nM
- TGI (BT-549 breast): > 100000 nM
- TGI (T-47D breast): > 100000 nM
- TGI (786-0 renal): > 100000 nM
- TGI (LOX IMVI melanoma): > 100000 nM
- TGI (DU-145 prostate): > 100000 nM
- TGI (MALME-3M melanoma): > 100000 nM
- TGI (OVCAR-3 ovarian): > 100000 nM
- TGI (HOP-92 NSCLC): > 100000 nM
- TGI (NCI-H226 lung): > 100000 nM
- TGI (TK-10 renal): > 100000 nM
